The values below come from PubChem BioAssay (NCI).

Test in all cases: growth of human tumour cells (NCI), 48 h
Experiment [1] has as its system SK-MEL-5 melanoma.
Experiment [2] relates to U251 CNS.
The subject of experiment [3] is SF-295 CNS.
Experiment [4] deals with SR leukemia.
For experiment [5], the system named is T-47D breast.
For experiment [6], the system named is HL-60(TB) leukemia.
Experiment [7] relates to NCI-H23 lung.
In experiment [8] the test system is BT-549 breast.
Experiment [9] concerns COLO 205 colon.
Experiment [10] concerns K-562 leukemia.

The structures appear in SMILES notation.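 Five compound concentrations were applied to cells in 96-well plates for 48 hours; endpoints were derived by simple linear interpolation of the resulting dose-response curve. The concentration for 50% growth inhibition is given as GI50. TGI is the concentration that stops growth completely.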 A value given as a limit tells only on which side of the number the result lay.

For `COc1ccc(/C=C2/SC(Nc3nc(-c4nc(NC5=NC(=O)/C(=C\c6ccc(OC)cc6)S5)sc4C)c(C)s3)=NC2=O)cc1`, the GI50 in [1] was 0.282 µM; in experiment [2] it was 1.3 µM; in experiment [3], 0.255 µM; in experiment [4], 0.14 µM; in [5] it was 7.52 µM; in [6] it was 0.397 µM. Further, the GI50 is 0.944 µM in [7], 2.23 µM in experiment [8], 2.42 µM in experiment [9] and 0.631 µM in [10]. The TGI is 3.93 µM in experiment [1]; 7.32 µM in experiment [2]; 4.97 µM in [3]; greater than 50 µM in experiment [4]; greater than 50 µM in experiment [5]; greater than 21.9 µM in experiment [6]. For the same compound, the TGI in experiment [7] is 4.97 µM; in [8], 22.2 µM; in experiment [9], greater than 50 µM; in experiment [10], greater than 16.2 µM.
On to `CCCCCCCCCCCCOC1C(CNC(=O)C2OC3OC(C)(C)OC3C2NC(=O)CN2CCN(c3ccc(OC)cc3)CC2)OC2OC(C)(C)OC21` (stereo not given), for which the GI50 was 4.39 µM in [1]; 4.74 µM in [2]; 5.12 µM in experiment [3]; 2.86 µM in experiment [4]; 4.33 µM in experiment [5]; 2.13 µM in experiment [6]. In addition, the GI50 in [7] was 9.68 µM; in [8], 6.19 µM; in experiment [9] it was 2.26 µM; in [10] it was 3.31 µM. The TGI in [1] is 16.1 µM; in [2], 15.8 µM; in [3] it was 18.4 µM; in experiment [4], 6.07 µM; in experiment [5], 23.4 µM; in experiment [6] it was 4.44 µM. Further, the TGI in experiment [7] came to 32 µM; in experiment [8] it was 17.4 µM; in experiment [9] it was 4.82 µM; in experiment [10], 11.2 µM.
On to `CCNC(=O)Oc1ccc(/C(=C(/C)Cc2ccc(OC)cc2)c2ccc(OCCN(CC)CC)cc2)cc1`, for which the GI50 in experiment [1] is 1.55 µM; in experiment [2], 1.73 µM; in experiment [3] it was 1.66 µM; in experiment [4] it was 1.76 µM; in experiment [5] it was 1.3 µM; in experiment [6], 1.94 µM. The GI50 in [7] is 2.09 µM; in experiment [8], 1.73 µM; in experiment [9], 1.94 µM; in experiment [10] it was 2 µM. Moreover, the TGI was 2.93 µM in experiment [1]; 3.2 µM in experiment [2]; 3.25 µM in experiment [3]; 5.96 µM in experiment [4]; 4.23 µM in experiment [5]; 4.56 µM in experiment [6]. Also, the TGI in experiment [7] was 5.35 µM; in experiment [8] it was 4.16 µM; in [9], 3.82 µM; in experiment [10] it was 6.09 µM.
As for `O=C(CCN1CCCCC1)N1CCc2c([nH]c3ccccc23)C1c1cccnc1` (stereo not given), the TGI in experiment [1] is 41.3 µM; in experiment [2], greater than 100 µM; in experiment [3], greater than 100 µM; in experiment [4], greater than 100 µM; in [5] it was greater than 100 µM; in experiment [6], greater than 93.2 µM. Besides, the TGI in experiment [7] was greater than 100 µM; in experiment [8], greater than 86.2 µM; in [9], 44.8 µM; in experiment [10] it was 75.1 µM.
Consider `C/C(=C(\c1ccc(OCCN2CCCCCC2)cc1)c1ccc(OC(=O)c2ccccc2)cc1)c1ccc(Cl)cc1`, for which the GI50 is 4.55 µM in [1]; 3.76 µM in [2]; 2.71 µM in [3]; 0.996 µM in experiment [4]; 1.76 µM in experiment [5]; 3.35 µM in experiment [6]. Moreover, the GI50 in experiment [7] is 4.73 µM; in [8] it was 4.56 µM; in experiment [9] it was 2.31 µM; in experiment [10], 1.31 µM. Moreover, the TGI in experiment [1] stood at 8.84 µM; in experiment [2], 8.08 µM; in experiment [3], 7.44 µM; in experiment [4], 3.33 µM; in [5], 7.47 µM; in [6], 11.5 µM. Further, the TGI in experiment [7] came to 11 µM; in experiment [8] it was 8.99 µM; in [9], 7.76 µM; in experiment [10], 33.3 µM.
`c1ccc(CNCCN(CCNCc2ccccn2)Cc2ccc3ccccc3c2)nc1`: the GI50 in experiment [1] is 1.76 µM; in experiment [2], 2.47 µM; in experiment [3], 1.42 µM; in experiment [4], 2.88 µM; in experiment [5] it was 2.59 µM; in experiment [6], 2.4 µM. Further, the GI50 in [7] was 2.26 µM; in experiment [8], 2.87 µM; in [9], 2.27 µM; in experiment [10] it was 2.97 µM. The TGI in [1] amounted to 3.16 µM; in experiment [2], 7.39 µM; in [3] it was 3.55 µM; in experiment [4], 7.83 µM; in experiment [5] it was 9.06 µM; in experiment [6] it was 5.77 µM. Besides, the TGI in experiment [7] is 6.19 µM; in [8], 10.9 µM; in [9], 4.57 µM; in experiment [10], 8.73 µM.
In the case of `CO[C@H]1CC(O[C@@H]2/C(C)=C/C[C@@H]3C[C@@H](C[C@]4(CC[C@H](C)[C@@H](C5CCCCC5)O4)O3)OC(=O)[C@@H]3C=C(C)/C(=N/O)[C@H]4OC/C(=C\C=C\[C@@H]2C)[C@]43O)O[C@@H](C)C1O` (stereo not given in full), the GI50 was 1 µM in experiment [1]; 0.759 µM in [2]; 0.888 µM in experiment [3]; 1.11 µM in experiment [4]; 1.1 µM in experiment [5]; 1.01 µM in experiment [6]. Also, the GI50 in experiment [7] was 1.01 µM; in experiment [8], 1.17 µM; in experiment [9] it was 0.93 µM; in experiment [10], 1.17 µM. Further, the TGI was found to be 2.29 µM in experiment [1]; 1.47 µM in [2]; 1.87 µM in [3]; 2.79 µM in experiment [4]; 3.09 µM in experiment [5]; 2.27 µM in [6]. Also, the TGI in experiment [7] is 2.65 µM; in experiment [8], 3.41 µM; in [9] it was 1.8 µM; in experiment [10], 2.67 µM.
As to `C#CCN(c1ccc(C(=O)N[C@@H](CCC(=O)N[C@H](CCC(=O)O)C(=O)O)C(=O)O)cc1)C1CCc2cc3nc(CO)[nH]c(=O)c3cc21` (stereo not given in full), the GI50 in experiment [1] is 10 µM; in [2], greater than 78.4 µM; in experiment [3], 5.01 µM; in [4], 7.05 µM; in experiment [5], greater than 67 µM; in [6], greater than 58.5 µM. Also, the GI50 in experiment [7] is 49.1 µM; in experiment [8], 58 µM; in [9], 13.8 µM; in [10], greater than 100 µM. Besides, the TGI is greater than 100 µM in [1]; greater than 100 µM in [2]; greater than 72.3 µM in experiment [3]; greater than 100 µM in experiment [4]; greater than 100 µM in experiment [5]; greater than 100 µM in experiment [6]. For the same compound, the TGI in experiment [7], in [8], in experiment [9] and in experiment [10] was greater than 100 µM each time.
For `Cc1cn(Cc2ccc(C34CC5CC(CC(C5)C3)C4)c(O)c2)c(=O)[nH]c1=O`, the GI50 was 4.37 µM in experiment [1]; 11.9 µM in experiment [2]; 4.56 µM in experiment [3]; 3.16 µM in experiment [4]; 6.45 µM in [5]; 2.73 µM in experiment [6]. Also, the GI50 in experiment [7] was 8.11 µM; in experiment [8], 8.7 µM; in experiment [9], 16.4 µM; in experiment [10] it was 2.99 µM. The TGI in experiment [1] stood at 15.8 µM; in experiment [2] it was 24.8 µM; in experiment [3], 18.5 µM; in experiment [4] it was 13.5 µM; in experiment [5] it was 51.8 µM; in experiment [6] it was 6.53 µM. The TGI in [7] worked out at 20.7 µM; in [8], 20.8 µM; in experiment [9], 32.2 µM; in [10], 11 µM.
As for `N#Cc1cnc(Nc2cc(NC[C@H]3CNCCO3)c(C(F)(F)F)cn2)cn1`, the GI50 in experiment [1] is 9.3 µM; in experiment [2] it was 21.8 µM; in [3] it was 0.525 µM; in [4], 0.64 µM; in [5], 16.6 µM; in experiment [6], 2.15 µM. Further, the GI50 was 0.791 µM in experiment [7], 5.62 µM in [8], 9.61 µM in [9] and 3.19 µM in experiment [10]. Also, the TGI in experiment [1] is 21.6 µM; in [2], 73 µM; in [3], greater than 100 µM; in experiment [4] it was 24 µM; in experiment [5] it was 51.5 µM; in experiment [6], 15.4 µM. Moreover, the TGI in [7] was 26.8 µM; in experiment [8], 32 µM; in experiment [9], 23.6 µM; in [10], 22.1 µM.
For the compound `O=C(NCC1CCCO1)c1ccc(NC2=C(Cl)C(=O)N(Cc3ccccc3)C2=O)cc1` (stereo not given), the GI50 in experiment [1] was 14.6 µM; in experiment [2] it was 18.6 µM; in experiment [3], 12.1 µM; in experiment [4], 12.4 µM; in experiment [5] it was 30.5 µM; in [6] it was 9.25 µM. Further, the GI50 is 17.2 µM in [7], 16.7 µM in experiment [8], 23 µM in [9] and 11.1 µM in experiment [10]. In addition, the TGI in experiment [1] is 33.3 µM; in experiment [2], 40.7 µM; in experiment [3], 25 µM; in experiment [4], 30.9 µM; in [5] it was greater than 100 µM; in experiment [6], 25 µM. The TGI came out at 34.3 µM in experiment [7], 33.9 µM in [8], 71.9 µM in experiment [9] and 34.3 µM in experiment [10].
